What was measured:
[1] = Rat liver microsome incubation; assay type: in vitro ADME; details: for Rat microsomes Clearance: intrinsic clearance, rat liver microsomes 1.0 mg prot/mL, prodrug 10 μM, 37° C.; for Rat microsomes MAB %: maximal achievable bioavailability (1−E), extrapolated from rat microsomal clearance
Method: (§1) Test Description for Microsome Incubation
(§2) Rat and human liver microsome incubations were conducted on-line in a CTC PAL autosampler in order to avoid any degradation of the prodrugs during the work-up. Incubation mixtures consisted of liver microsomes (rat 1.0 mg prot/mL or human 2.0 mg prot/mL), prodrug 10 μM, MgCl2 (3.3 mM), and an NADPH regenerating system consisting of glucose-6-phosphate dehydrogenase, NADPH and glucose-6-phosphate equivalent to 1 mM NADPH) in a total volume of 1.0 mL of potassium phosphate buffer 100 mM pH 7.4.
(§3) Reactions were initiated by addition of the NADPH regenerating system at 37° C. At time 1, 5, 9, 13, 17, 21, 25, and 29 min a 5 μL aliquot was directly analysed on a HPLC-MS/MS system comprising of a HP 1100 quaternary pump with degasser and a PE-Sciex API-2000 MS/MS spectrometer. The analytical column was a Waters Symmetry Shield RP8 (2.1*50 mm with a […] particle size). A polarity non linear gradient from phase A (MeOH/Ac. Form.1% 20/80) to phase B (MeOH) was applied for a total run time of 2 minutes at a flow rate of 0.25 mL/min. The PE-Sciex API-2000 MS/MS spectrometer was used for detection of both the prodrugs and the parent compound (R)-1-[6-[(R)-2-carboxy-pyrrolidin-1-yl]-6-oxo-hexanoyl]-pyrrolidine-2-carboxylic acid. In vivo metabolic clearance was predicted according to published procedures (Houston, J. B., Biochem. Pharmacol., 47:1469-1479, 1994). In brief, the intrinsic clearance (Clearance, Table 1) was calculated from the measured in vitro half-life taking into account incubation volume and microsomal protein used for the in vitro incubation. The intrinsic clearance was expressed in terms of ul/min/mg microsomal protein. For in vivo extrapolations, the hepatic extraction ratio (E) was calculated. Reported below is the %MAB value (maximal achievable bioavailability), which is equal to 1−E.

[2] = Human liver microsome incubation; assay type: in vitro ADME; details: for Human microsomes Clearance: intrinsic clearance, human liver microsomes 2.0 mg prot/mL, prodrug 10 μM, 37° C.; for Human microsomes MAB %: maximal achievable bioavailability (1−E), extrapolated from human microsomal clearance
Method: as §1, §2, §3

[3] = Stability of the prodrugs in plasma samples; assay type: in vitro ADME, rat; details: half-life (50% conversion of the prodrug), 10 μM, 37° C.
Method: Stability of the Prodrugs in Blood and Plasma Samples
Plasma and blood samples from different species were merged with equimolar amounts (10 μM) of prodrug and parent drug in DMSO and incubated for different time intervals (up to 60 min.) at 37° C. The reaction was stopped by protein precipitation with acetonitrile followed by centrifugation (20 min., 1800 g at 10° C.). The supernatant was immediately subjected to analysis.
The concentration of formed parent compound was determined by LC-MS. The chromatographic system was comprised of a trapping column (X-Terra™ MS C8 3.5 μm, 10×2.1 mm i.d., Waters) and an analytical column (Symmetry C8 3.5 μm, 50×2.1 mm i.d., Waters) connected to a SCIEX API 2000 triplequadrupole mass spectrometer equipped with a turbo ion spray interface. The mobile phases were 1% aqueous formic acid and acetonitrile. The parent compound together with its deuterium labelled internal standard was enriched on the trapping column and eluted with a fast gradient. The retention time of (R)-1-[6-[(R)-2-carboxy-pyrrolidin-1-yl]-6-oxo-hexanoyl]-pyrrolidine-2-carboxylic acid was ˜2.1 min. The effluent (300 μl min^−1) was passed to the turbo ion spray interface without splitting and was nebulized using nitrogen. Multiple reaction monitoring (MRM) in positive mode Was used for mass spectrometric detection. The transitions for the parent were 341.1 [M+H]^+ to 226.1 [Fragment]^+ and for the internal standard 349.1 [M+H]^+ to 234.1 [Fragment]^+. The results were expressed as half-lifes (50% conversion of the prodrug), using the data of the prodrug at time-point 0 min. as […].

Row | Compound | Rat microsomes Clearance [1] | Rat microsomes MAB % [1] [%] | Human microsomes Clearance [2] | Human microsomes MAB % [2] [%] | Rat plasma tl/2 hours [3]
1 | CCOC(=O)[C@H]1CCCN1C(=O)CCCCC(=O)N1CCC[C@@H]1C(=O)OCC [Example 11, (R)-1-{6-[(R)-2-Ethoxycarbonyl-pyrrolidin-1-yl]-6-oxo-hexanoyl}-pyrrolidine-2-carboxylic acid ethyl ester] | 46 ul/min/mg microsomal protein | 44 | 5 ul/min/mg microsomal protein | 77 | 0.4 h
2 | CCN(CC)C(=O)COC(=O)[C@H]1CCCN1C(=O)CCCCC(=O)N1CCC[C@@H]1C(=O)OCC(=O)N(CC)CC [Example 7, (R)-1-{6-[(R)-2-(Diethylcarbamoyl-methoxycarbonyl)-pyrrolidin-1-yl]-6-oxo-hexanoyl}-pyrrolidine-2-carboxylic acid diethylcarbamoyl-methyl ester] | 9 ul/min/mg microsomal protein | 73 | 2 ul/min/mg microsomal protein | 90 | 0.2 h
3 | C=CCNC(=O)COC(=O)[C@H]1CCCN1C(=O)CCCCC(=O)N1CCC[C@@H]1C(=O)OCC(=O)NCC=C [Example 2, (R)-1-[6-[(R)-2-Allylcarbamoylmethoxycarbonyl-pyrrolidin-1-yl]-6-oxo-hexanoyl]-pyrrolidine-2-carboxylic acid allylcarbamoylmethyl ester] | 18 ul/min/mg microsomal protein | 66 | 64 ul/min/mg microsomal protein | 20 | low
4 | COC(=O)[C@H]1CCCN1C(=O)CCCCC(=O)N1CCC[C@@H]1C(=O)OC [Example 10, (R)-1-{6-[(R)-2-Methoxycarbonyl-pyrrolidin-1-yl]-6-oxo-hexanoyl}-pyrrolidine-2-carboxylic acid methyl ester] | 9 ul/min/mg microsomal protein | 79 | 2 ul/min/mg microsomal protein | 90 | 1.3 h
5 | CCCOC(=O)[C@H]1CCCN1C(=O)CCCCC(=O)N1CCC[C@@H]1C(=O)OCCC [Example 12, (R)-1-{6-Oxo-6-[(R)-2-propoxycarbonyl-pyrrolidin-1-yl]-hexanoyl}-pyrrolidine-2-carboxylic acid propyl ester] | 253 ul/min/mg microsomal protein | 12 | 73 ul/min/mg microsomal protein | 18 | 
6 | O=C(COC(=O)[C@H]1CCCN1C(=O)CCCCC(=O)N1CCC[C@@H]1C(=O)OCC(=O)NC1CC1)NC1CC1 [Example 5, (R)-1-{6-[(R)-2-(Cyclopropylcarbamoyl-methoxycarbonyl)-pyrrolidin-1-yl]-6-oxo-hexanoyl}-pyrrolidine-2-carboxylic acid cyclopropylcarbamoyl-methyl ester] | 36 ul/min/mg microsomal protein | 50 | 8 ul/min/mg microsomal protein | 67 | low

The next lines start with the values.

Row | Rat microsomes Clearance [1] | Rat microsomes MAB % [1] [%] | Human microsomes Clearance [2] | Human microsomes MAB % [2] [%] | Rat plasma tl/2 hours [3] | Compound
7 | 7 ul/min/mg microsomal protein | 84 | 1 ul/min/mg microsomal protein | 96 | 0.8 h | CN(C)C(=O)COC(=O)[C@H]1CCCN1C(=O)CCCCC(=O)N1CCC[C@@H]1C(=O)OCC(=O)N(C)C [Example 6, (R)-1-{6-[(R)-2-(Dimethylcarbamoyl-methoxycarbonyl)-pyrrolidin-1-yl]-6-oxo-hexanoyl}-pyrrolidine-2-carboxylic acid dimethylcarbamoyl-methyl ester]
8 | 625 ul/min/mg microsomal protein | 5 | 57 ul/min/mg microsomal protein | 22 | low | CC(C)(C)NC(=O)COC(=O)[C@H]1CCCN1C(=O)CCCCC(=O)N1CCC[C@@H]1C(=O)OCC(=O)NC(C)(C)C [Example 4, (R)-1-{6-[(R)-2-(tert-Butylcarbamoyl-methoxycarbonyl)-pyrrolidin-1-yl]-6-oxo-hexanoyl}-pyrrolidine-2-carboxylic acid tert-butylcarbamoyl-methyl ester]
9 | 5 ul/min/mg microsomal protein | 88 | 1 ul/min/mg microsomal protein | 93 | 0.4 h | NC(=O)COC(=O)[C@H]1CCCN1C(=O)CCCCC(=O)N1CCC[C@@H]1C(=O)OCC(N)=O [Example 1, (R)-1-[6-[(R)-2-Carbamoylmethoxycarbonyl-pyrrolidin-1-yl]-6-oxo-hexanoyl]-pyrrolidine-2-carboxylic acid carbamoylmethyl ester]
10 | 82 ul/min/mg microsomal protein | 30 | 16 ul/min/mg microsomal protein | 50 | low | CC(C)NC(=O)COC(=O)[C@H]1CCCN1C(=O)CCCCC(=O)N1CCC[C@@H]1C(=O)OCC(=O)NC(C)C [Example 3, (R)-1-{6-[(R)-2-(Isopropylcarbamoyl-methoxycarbonyl)-pyrrolidin-1-yl]-6-oxo-hexanoyl}-pyrrolidine-2-carboxylic acid isopropylcarbamoyl-methyl ester]

Reference: patent US6903129B2, “D-proline prodrugs” (Hoffman-La Roche Inc., priority 2001, dated 2005)
